# According to paper PMC5384962, “First-in-human studies of seletalisib, an orally bioavailable small-molecule PI3Kδ inhibitor for the treatment of immune and inflammatory diseases” (European Journal of Clinical Pharmacology, 2017):
# Where two headings read alike, the source gives them in different places.
# Tests used:
# [1] = Study-1 Part-B multiple ascending dose pharmacokinetics (plasma and urine); assay type: in vivo, human; conditions: for Fe(0–24) / CLss/F / Cmaxss / Ctrough / Vzss/F / AUC(0-t) / Tmax / Cmax / half-life / CL renal / Ae(0–24): Study-1 Part-B; for Fe(0–24) / CLss/F / Cmaxss / Ctrough / Vzss/F / AUC(0-t) / Cmax / half-life / CL renal / Ae(0–24): geo mean (GeoCV%); for AUC(0-t) / Tmax / Cmax / half-life / CL renal: human, oral; for AUC(0-t) / Tmax / Cmax / half-life: plasma; for AUC(0-t): read-out: AUC(0–24); for CL renal: urine and plasma; for Ae(0–24): urine
# Text: These were phase I, randomised, double-blind, placebo-controlled studies designed to evaluate the safety, tolerability, PK and PD profiles of seletalisib following oral administration of single ascending doses and multiple ascending doses. Study-1 was a first-in-human, double-blind (sponsor-, investigator- and subject-blind) study that had two parts: Part-A evaluated seletalisib (single ascending doses) in healthy adults (including evaluation of food effects; Table 1); Part-B evaluated seletalisib (multiple ascending doses) in healthy adults and subjects with mild-to-moderate psoriasis. Study-2 was also a double-blind study of seletalisib (single and multiple ascending doses) in healthy subjects, which investigated higher doses.
# Plasma concentrations of seletalisib were measured by high-performance liquid chromatography with tandem mass spectrometry (see Online Resource S1 for further details). The following PK parameters were determined in each study: AUC for seletalisib, maximum observed plasma concentration of seletalisib after a single dose (Cmax) and at steady-state (Cmaxss), time of occurrence of Cmax (tmax, obtained directly from the observed plasma concentration-time curves), minimum observed plasma concentration of seletalisib at steady-state immediately before the next dose would be administered (Ctrough), apparent terminal half-life, apparent volume of distribution after single dosing (Vz/F) and at steady-state (Vzss/F) and apparent total body clearance after single dosing (CL/F) and at steady-state (CLss/F). Accumulation factor based on AUC(0–24) [R(AUC)] and accumulation factor based on Cmax [R(Cmax)] were determined on multiple dose day 14. The following study-specific PK parameters were also determined: Study-1, total amount of seletalisib excreted in urine (Ae), renal clearance (CLr) and fraction of drug excreted in urine; Study-2, AUC(0–10) in BID dose groups, terminal elimination rate constant in plasma (λz), mean residence time (MRT) and linearity factor (LF [AUC(0–24)ss/AUC]).
# Methods for the calculation of seletalisib PK parameters are detailed in Online Resource S1.
# Seletalisib PK parameters were calculated via non-compartmental analysis methods from the individual concentration-time data using Phoenix WinNonlin version 6.2 (Certara, Princeton, NJ, USA). Urine (Study-1 only) and plasma PK parameters of seletalisib were reported for each subject and summarised by study part and dose group. Geometric mean and percentage geometric coefficient of variation (GeoCV%) were reported for all parameters except for tmax, which was reported using median and range. Dose proportionality for AUC and Cmax at Day_1 (Study-1 [Part-A & Part-B]; Study-2, single ascending dose-Day_1) and at steady state at Day_14 (Study-1 [Part-B]; Study-2, multiple ascending dose-Day_14) was examined via the power model and reported graphically. In Study-1, an assessment of food effect (fed versus fasted) was made for Cmax and AUC from the data for subjects who received the same dose in fed and fasted states in Part-A.
# basophil degranulation [2] = assay: Study-2 ex vivo basophil degranulation (anti-FcεR1-driven CD63 expression, whole blood); conditions: Study-2, single dose, by 4 h post-dose on day 1, range across groups
# Method: (§1) Subjects were assessed for basophil degranulation following stimulation at multiple time points, as described in Online Resource S1.
# (§2) Degranulation of basophils was determined in whole blood by monitoring increased cell surface CD63 expression utilizing flow cytometry in an ex vivo stimulation assay driven by anti-IgE (Study-1) or anti-FcεR1 (Study-2). Briefly, blood was collected in lithium-heparin tubes (BD Biosciences, Oxford, UK) and stimulated with IgE or FcεRI cross-linking antibodies (eBiosciences, Hatfield, UK) for 12 min at 37°C. Following red blood cell lysis by addition of BD FACSlyse (BD Biosciences, Oxford, UK), samples were centrifuged and the supernatant discarded. The cell pellet was washed in PBS and re-suspended in fixative (5% formaldehyde in PBS). CD63 expression was determined on basophils (side-scatter low, CD123+HLA-DR-) and detected by flow cytometry using the BD antibody cocktail containing CD63, CD123, and anti-HLA-DR.
# basophil degranulation [3] = assay: Study-1 ex vivo basophil degranulation (anti-IgE-driven CD63 expression, whole blood); assay type: in vivo, human; conditions: Study-1 Part-A, single doses; very high variability
# Method: as §1, §2
# [4] = Study-1 Part-B safety/tolerability (adverse events, laboratory, OGTT), multiple doses; conditions: for Deaths: Study-1 multiple doses
# Method: In Study-1 (Part-B), a total of 27 subjects were enrolled, two cohorts of healthy subjects (n = 9 in each) and one cohort of subjects with mild-to-moderate psoriasis (n = 9). Subjects were randomised (2:1) to ascending multiple doses of seletalisib (5, 8 and 15 mg) or placebo for 14 days.
# Adverse events (AEs), serious AEs (SAEs), routine clinical laboratory parameters, vital signs and ECGs were monitored throughout the study periods and for ≤7 days post-administration of final-dose of seletalisib/placebo. The potential for seletalisib to cause gastrointestinal (GI) tract adverse effects was assessed by careful monitoring of subject reports of AEs such as abdominal pain, bloating, nausea, vomiting and alteration of bowel function (e.g. diarrhoea, constipation or bleeding). A formal safety review was conducted before each dose escalation. In Study-1 (Part-B), the potential for seletalisib to interfere with insulin signalling was assessed by monitoring blood glucose and C-peptide levels as part of the standard laboratory tests and by performance of oral glucose tolerance tests, measuring glucose and C-peptide levels, pre-dose and during exposure in all cohorts.
# In each study, the primary population for analysis was the full analysis set (FAS), which comprised all subjects who had received ≥1 dose of seletalisib or placebo. PK analysis was performed on the PK per-protocol set (PK-PPS), which was a subset of the FAS consisting of subjects with no important protocol deviations likely to affect PK variables who received seletalisib; subjects who received placebo were excluded from this analysis. In Study-1 and Study-2, sample sizes of 57 and 36 subjects, respectively, were considered sufficient to permit assessment of the safety and tolerability of seletalisib and were not based on statistical considerations of power and sample size. In Study-1 (Part-A), a panel size of 15 subjects was selected to achieve good estimates of the PK/PD parameters.
# [5] = power model, Study-1 Part B Day 14
smiles,measurement,setting,value
"[O-][n+]1cccc(-c2nc3c(Cl)cccc3cc2[C@@H](Nc2ncnc3cccnc23)C(F)(F)F)c1 [Seletalisib, seletalisib]",geometric mean fraction of drug excreted in urine,"[1]; Study-1 Part-A and Part-B, parent drug, across dose groups",≤ 12%
same,Fe(0–24),"[1]; 5 mg, Day 1",4.02 (32.2) %
same,CLss/F,"[1]; 5 mg, Day 14",1.97 (36.2) L/h
same,Cmaxss,"[1]; 5 mg, Day 14",175 (29.1) ng/mL
same,Ctrough,"[1]; 5 mg, Day 14",66.5 (47.3) ng/mL
same,Fe(0–24),"[1]; 5 mg, Day 14",6.80 (40.0) %
same,Vzss/F,"[1]; 5 mg, Day 14",62.5 (20.0) L
same,Fe(0–24),"[1]; 8 mg, Day 1",4.24 (51.9) %
same,CLss/F,"[1]; 8 mg, Day 14",1.83 (50.2) L/h
same,Cmaxss,"[1]; 8 mg, Day 14",285 (41.7) ng/mL
same,Ctrough,"[1]; 8 mg, Day 14",113 (67.8) ng/mL
same,Fe(0–24),"[1]; 8 mg, Day 14",7.60 (26.3) %
same,Vzss/F,"[1]; 8 mg, Day 14",60.3 (40.1) L
same,Fe(0–24),"[1]; 15 mg, Day 1",5.42 (48.2) %
same,CLss/F,"[1]; 15 mg, Day 14",2.75 (29.9) L/h
same,Cmaxss,"[1]; 15 mg, Day 14",414 (23.0) ng/mL
same,Ctrough,"[1]; 15 mg, Day 14",140 (35.0) ng/mL
same,Fe(0–24),"[1]; 15 mg, Day 14",12.0 (52.8) %
same,Vzss/F,"[1]; 15 mg, Day 14",89.0 (24.9) L
same,AUC(0-t),"[1]; 5 mg, 5 mg, Day 1",1560 ng·h/mL
same,Tmax,"[1]; 5 mg, 5 mg, Day 1, median (range), read-out: tmax",4.01 h
same,AUC(0-t),"[1]; 5 mg, 5 mg, Day 14",2540 ng·h/mL
same,Tmax,"[1]; 5 mg, 5 mg, Day 14, median (range), read-out: tmax",3 h
same,AUC(0-t),"[1]; 8 mg, 8 mg, Day 1",2610 ng·h/mL
same,Tmax,"[1]; 8 mg, 8 mg, Day 1, median (range), read-out: tmax",4 h
same,AUC(0-t),"[1]; 8 mg, 8 mg, Day 14",4370 ng·h/mL
same,Tmax,"[1]; 8 mg, 8 mg, Day 14, median (range), read-out: tmax",3.5 h
same,AUC(0-t),"[1]; 15 mg, 15 mg, Day 1",3940 ng·h/mL
same,Tmax,"[1]; 15 mg, 15 mg, Day 1, median (range), read-out: tmax",3.01 h
same,AUC(0-t),"[1]; 15 mg, 15 mg, Day 14",5460 ng·h/mL
same,Tmax,"[1]; 15 mg, 15 mg, Day 14, median (range), read-out: tmax",3 h
same,Tmax,"[1]; day 1, fed, range across groups, read-out: time to peak plasma concentration",3.01 to 4.01 h
same,Tmax,"[1]; day 14, fed, range across groups, read-out: time to peak plasma concentration",3 to 3.5 h
same,Cmax,"[1]; 5 mg, Day 1",122 ng/mL
same,half-life,"[1]; 5 mg, Day 14",22 h
same,Cmax,"[1]; 8 mg, Day 1",201 ng/mL
same,half-life,"[1]; 8 mg, Day 14",22.8 h
same,Cmax,"[1]; 15 mg, Day 1",322 ng/mL
same,half-life,"[1]; 15 mg, Day 14",22.5 h
same,CL renal,"[1]; 5 mg, 5 mg, Day 1",2.15 mL/min
same,CL renal,"[1]; 5 mg, 5 mg, Day 14",2.23 mL/min
same,CL renal,"[1]; 8 mg, 8 mg, Day 1",2.17 mL/min
same,CL renal,"[1]; 8 mg, 8 mg, Day 14",2.32 mL/min
same,CL renal,"[1]; 15 mg, 15 mg, Day 1",3.43 mL/min
same,CL renal,"[1]; 15 mg, 15 mg, Day 14",5.48 mL/min
same,"Dose proportionality of Cmaxss (ng/mL): Dose (beta), Estimate",[1]; [5],0.78
same,"Dose proportionality of Cmaxss (ng/mL): Intercept, Estimate",[1]; [5],3.95
same,Ae(0–24),"[1]; 5 mg, Day 1",0.201 (32.2) mg
same,Ae(0–24),"[1]; 5 mg, Day 14",0.340 (40.0) mg
same,Ae(0–24),"[1]; 8 mg, Day 1",0.340 (51.9) mg
same,Ae(0–24),"[1]; 8 mg, Day 14",0.608 (26.3) mg
same,Ae(0–24),"[1]; 15 mg, Day 1",0.812 (48.2) mg
same,Ae(0–24),"[1]; 15 mg, Day 14",1.80 (52.8) mg
same,inhibition of basophil degranulation,basophil degranulation [2],80.3–92.5%
same,inhibition of basophil degranulation compared with placebo,basophil degranulation [3],inhibition of basophil degranulation was observed in all seletalisib-treated groups
same,Deaths,"[4]; 5 mg, 14 days",0 n (%)
same,Deaths,"[4]; 8 mg, 14 days",0 n (%)
same,Deaths,"[4]; 15 mg, 14 days (psoriasis cohort)",0 n (%)
same,Deaths,[4]; seletalisib total,0 n (%)
same,glucose handling versus baseline (oral glucose tolerance test),[4]; in vivo,no significant alteration
same,neutrophil counts,[4]; in vivo,Modest reductions
same,number of AEs of potential GI disturbance,[4]; in vivo,Six
same,number of moderate AEs,[4]; in vivo,three
